# Literature values in patent US20080003219A1, “DELIVERY OF AN OCULAR AGENT” (MINU, L.L.C., priority 2005, published 2008).
# B1: ranibizumab (antibody, chains of the INN, looked up, V domains shown)
# VH: EVQLVESGGGLVQPGGSLRLSCAASGYDFTHYGMNWVRQAPGKGLEWVGWINTYTGEPTYAADFKRRFTFSLDTSKSTAYLQMNSLRAEDTAVYYCAKYPYYYGTSHWYFDVWGQGTLVTVSS
# VL: DIQLTQSPSSLSASVGDRVTITCSASQDISNYLNWYQQKPGKAPKVLIYFTSSLHSGVPSRFSGSGSGTDFTLTISSLQPEDFATYYCQQYSTVPWTFGQGTKVEIK
# modifications: Fab
# Legend:
# [1] = system: chronic myeloid leukemia (CML); settings: CML patients who initially respond
# [2] = system: neovascular age-related macular degeneration; settings: 1 mg single intravitreal injection
# [3] = system: choroidal neovascularization; settings: intravitreal injection in combination with verteporfin PDT, compared with PDT only
molecule,measurement,setting,value
Cc1ccc(NC(=O)c2ccc(CN3CCN(C)CC3)cc2)cc1Nc1nccc(-c2cccnc2)n1 [imatinib],initially responding CML patients who subsequently develop drug resistance,[1],about 10%
bevacizumab,observed inflammation,[2],no observed inflammation
same,subretinal fluid,[2]; after one week,resolution of subretinal fluid after one week
same,macular appearance,[2]; duration of improvement,improved macular appearance maintained for at least four weeks
B1,reduction in angiographic leakage,[3],greater reduction in angiographic leakage than PDT only
